Measured values from patent publication US6500959B1, “Pyrrolidine derivatives and processes for preparing same” (GPI NIL Holdings, Inc., priority 1995, dated 2002).
“Also recorded” adds a separate entry of the source.

Columns and labels:
[1] = tested on: chick dorsal root ganglia; experiment: Chick dorsal root ganglion cultures and neurite outgrowth; format: cell-based; details: 48 h
From the text: Forty-eight hours later, the number of neurite with a length greater than one DRG explant was quantitated. The number of neurites expressed in untreated DRG's was subtracted from the neurite number of Example 17—treated samples to yield Example 17—dependent specific neurite outgrowth.
Forty-eight hours later, the number of neurite with a length greater than one DRG explant was quantitated. The number of neurites expressed in untreated DRG's was subtracted form the neurite number of Example 17—treated samples to yield Example 17—dependent specific neurite outgrowth. Quantitative dose-dependent neurite outgrowth elicited by Example 17 is presented.
Dorsal root ganglia were dissected from chick embryos of ten day gestation. Whole ganglion explants were cultured on thin layer Matrigel-coated 12 well plates with Liebovitz L15 plus high glucose media supplemented with 2 mM glutamine and 10% fetal calf serum, and also containing 10 μM cytosine β-D arabinofuranoside (Ara C) at 37° C. in an environment containing 5% CO2. Twenty-four hours later, the DRGs were treated with various concentrations of nerve growth factor, immunophilin ligands or combinations of NFG plus drugs. Forty-eight hours after drug treatment, the ganglia were visualized under phase contrast or Hoffman Modulation contrast with a Zeiss Axiovert inverted microscope. Photomicrographs of the explants were made, and neurite outgrowth was quantitated. Neurites longer than the DRG diameter were counted as positive, with total number of neurites quantitated per each experimental condition. Three to four DRGs are cultured per well, and each treatment was performed in duplicate.

[2] = tested on: dopaminergic neurons; experiment: MPTP model of Parkinson's Disease in mice; format: in vivo, CD1 mice
Procedure: FIG. 4 is a graph of [^3H]-CFT binding per μg of Striatal Membrane Protein. […] CD1 mice (25 g) were treated daily with 30 mg/kg MPTP (i.p.) for 5 days. […] After eighteen days, the mice were sacrificed, striata from 5 animals per group were pooled and processed into a washed membrane preparation. Binding of [3H]-CFT to these striated membrane preparations of various groups was quantitated to determine dopamine transporter levels on viable nerve terminals. Binding in the presence of 10 μM unlabelled CFT provided on estimate of nonspecific binding, which as subtracted from the total binding to quantitative specific [3H]-CFT bound. Binding was normalized to the protein content of the striatal membranes from each experimental group. Coronal and saggital brain sections from MPTP and drug treated animals were stained with anti-tyrosine hydroxylase (TH) Ig to quantitate striatal, medial forebrain bundle axonal and nigral levels of TH, which is indicative of functional dopaminergic neurons. […] Binding of [3H]CFT, a radioligand for the dopamine transporter, to the […] membranes was done to quantitate the level of the dopamine transporter (DAT) following lesion and drug treatment. Immunostaining was performed on saggital and coronal brain sections using anti-tyrosine hydoxylase Ig to quantitate survival and recovery of dopaminergic neurons. […]

`CCC(C)(C)C(=O)C(=O)N1CCC[C@H]1C(=O)OCCCc1cccnc1` [Example 17, 3-(3-Pyridyl)-1-propyl (2S)-1-(3,3-dimethyl-1,2-dioxopentyl)-2-pyrrolidinecarboxylate] was tested, and the EC50 ([1]; Gallus gallus, read-out: ED50, neurite outgrowth) was 0.05 nM, the “neurite outgrowth in sensory neuronal cultures” value ([1]; chick DRG explants, various concentrations) was “potently promotes neurite outgrowth” and the “recovery of [3H]-CFT binding” value ([2]; 40 mg/kg s.c. in addition to MPTP, striatal membranes, dopamine transporter level) was “greater than 90%”. The “recovery of TH-stained dopaminergic neurons (tyrosine hydroxylase immunostaining)” value ([2]; 10-40 mg/kg s.c., striatum, nigra, medial forebrain bundle, versus MPTP/Vehicle) was “nearly quantitative recovery; also recorded: clear and marked recovery of functional neurons”.
